In one assay the target is Bcl-2 protein (histag-Bcl-2, UniProtKB P10415) (Homo sapiens (Human), UniProt P10415). The assay can be described thus: Inhibition of Bcl-2 by the fluorescence polarisation technique. In kind it is binding. The conditions noted are these: incubation for 2 hours, read-out: IC50 (nM) Bcl-2 FP. The method in brief:
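In pH 7.4 buffer (Hepes 10 mM, NaCl 150 mM, Tween20 0.05%), test compounds at increasing concentrations competed with a fluorescein peptide (1.00×10^−8 M final) for histag-Bcl-2 (2.50×10^−8 M final). Readout was fluorescence polarisation after a 2 h incubation.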
On the technique in general: Fluorescence polarisation rises when a labelled molecule tumbles more slowly, as on binding a larger partner.

The subject of assay [1] is RS4;11 leukaemia tumour line. The experiment in a line: In vitro cytotoxicity (Microculture Tetrazolium Assay). In kind it is cell-based. The conditions noted are these: Homo sapiens, RS4-11, 48 h, RS4;11 cells, exposed for 48 hours, cell viability; read-out: IC50 (nM) MTT RS4;11. The method, then: The cytotoxicity studies were carried out on the RS4;11 leukaemia tumour line.
The cells are distributed onto microplates and exposed to the test compounds for 48 hours.
The cell viability is then quantified by a colorimetric assay, the Microculture Tetrazolium Assay (Cancer Res., 1987, 47, 939-942).

Where a name gives a salt, the structure may show the parent alone.

Bcl-2 protein, sequence (P10415 whole entry): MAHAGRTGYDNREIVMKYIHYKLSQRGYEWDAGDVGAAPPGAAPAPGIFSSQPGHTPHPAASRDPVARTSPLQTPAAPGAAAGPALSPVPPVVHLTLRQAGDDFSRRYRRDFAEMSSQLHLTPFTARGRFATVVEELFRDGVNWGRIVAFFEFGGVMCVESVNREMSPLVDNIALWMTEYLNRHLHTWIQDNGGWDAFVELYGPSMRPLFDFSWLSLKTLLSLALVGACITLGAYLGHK

Turning to `Cc1c(C(=O)N(c2ccc(O)cc2)c2cnn(C)c2)cc(-c2cc3c(cc2C(=O)N2Cc4ccccc4C[C@H]2CN2CCOCC2)OCO3)n1CCF` [Example 94, 1-(2-Fluoroethyl)-N-(4-hydroxyphenyl)-2-methyl-N-(1-methyl-1H-pyrazol-4-yl)-5-(6-{[(3S)-3-(morpholin-4-ylmethyl)-3,4-dihydroisoquinolin-2(1H)-yl]carbonyl}-1,3-benzodioxol-5-yl)-1H-pyrrole-3-carboxamide hydrochloride], the half-inhibitory concentration (IC50) on Bcl-2 protein came to 8.6 nM; in assay [1] it was 104 nM.

Take `Cc1c(C(=O)N(c2ccc(O)cc2)c2cnn(C)c2)cc(-c2cc3c(cc2C(=O)N2Cc4ccccc4C[C@H]2CN2CCOCC2)OCO3)n1CC(F)F` [Example 95, 1-(2,2-Difluoroethyl)-N-(4-hydroxyphenyl)-2-methyl-N-(1-methyl-1H-pyrazol-4-yl)-5-(6-{[(3S)-3-(morpholin-4-ylmethyl)-3,4-dihydroisoquinolin-2(1H)-yl]carbonyl}-1,3-benzodioxol-5-yl)-1H-pyrrole-3-carboxamide hydrochloride]: the results for the 50% inhibitory concentration (IC50) (on Bcl-2 protein; in assay [1]) were 7 nM and 174 nM, respectively.

As for `Cc1c(C(=O)N(c2ccc(O)cc2)c2cnn(C)c2)cc(-c2cc3c(cc2C(=O)N2Cc4ccccc4C[C@H]2C)OCO3)n1CCN1CCOCC1` [Example 96, N-(4-Hydroxyphenyl)-2-methyl-5-(6-{[(3R)-3-methyl-3,4-dihydroisoquinolin-2(1H)-yl]carbonyl}-1,3-benzodioxol-5-yl)-N-(1-methyl-1H-pyrazol-4-yl)-1-[2-(morpholin-4-yl)ethyl]-1H-pyrrole-3-carboxamide hydrochloride], the IC50 worked out at 13.5 nM at Bcl-2 protein and 161 nM in assay [1].

On to `Cc1c(C(=O)N(c2ccccc2)c2ccc(O)cc2)cc(-c2cc3c(cc2C(=O)N2Cc4ccccc4C[C@H]2C)OCO3)n1CCN1CCOCC1` [Example 97, N-(4-Hydroxyphenyl)-2-methyl-5-(6-{[(3R)-3-methyl-3,4-dihydroisoquinolin-2(1H)-yl]carbonyl}-1,3-benzodioxol-5-yl)-1-[2-(morpholin-4-yl)ethyl]-N-phenyl-1H-pyrrole-3-carboxamide hydrochloride], for which the IC50 on Bcl-2 protein came to 19 nM; in assay [1], 98 nM.

With `Cc1c(C(=O)N(c2ccccc2)c2ccc(O)cc2)cc(-c2cc3c(cc2C(=O)N2Cc4ccccc4C[C@H]2C)OCO3)n1CCN(C)C` [Example 98, 1-[2-(Dimethylamino)ethyl]-N-(4-hydroxyphenyl)-2-methyl-5-(6-{[(3R)-3-methyl-3,4-dihydroisoquinolin-2(1H)-yl]carbonyl}-1,3-benzodioxol-5-yl)-N-phenyl-1H-pyrrole-3-carboxamide hydrochloride], the figures for the 50% inhibitory concentration (IC50) (at Bcl-2 protein; in assay [1]) were 7.6 nM and 68.3 nM, respectively.

Turning to `COCCN(C)CCn1c(-c2cc3c(cc2C(=O)N2Cc4ccccc4C[C@H]2C)OCO3)cc(C(=O)N(c2ccc(O)cc2)c2cnn(C)c2)c1C` [Example 99, N-(4-Hydroxyphenyl)-1-{2-[(2-methoxyethyl)(methyl)amino]ethyl}-2-methyl-5-(6-{[(3R)-3-methyl-3,4-dihydroisoquinolin-2(1H)-yl]carbonyl}-1,3-benzodioxol-5-yl)-N-(1-methyl-1H-pyrazol-4-yl)-1H-pyrrole-3-carboxamide hydrochloride], the values for the IC50 (at Bcl-2 protein; in assay [1]) were 6.4 nM and 108 nM, respectively.

`COc1cc(C(=O)N2Cc3ccccc3C[C@H]2CN2CCOCC2)c(-c2[nH]c(C)c(C(=O)N(c3ccc(O)cc3)c3cnn(C)c3)c2C)cc1F` [Example 100, 5-(5-Fluoro-4-methoxy-2-{[(3S)-3-(morpholin-4-ylmethyl)-3,4-dihydroisoquinolin-2(1H)-yl]carbonyl}phenyl)-N-(4-hydroxyphenyl)-4,2-dimethyl-N-(1-methyl-1H-pyrazol-4-yl)-1H-pyrrole-3-carboxamide hydrochloride]: the results for the IC50 (on Bcl-2 protein; in assay [1]) were 22.9 nM and 193 nM, respectively.

In the case of `COc1cc(-c2cc(C(=O)N(c3ccc(O)cc3)c3cnn(C)c3)c(C)n2C)c(C(=O)N2Cc3ccccc3C[C@H]2CN2CCOCC2)cc1F` [Example 101, 5-(4-Fluoro-5-methoxy-2-{[(3S)-3-(morpholin-4-ylmethyl)-3,4-dihydroisoquinolin-2(1H)-yl]carbonyl}phenyl)-N-(4-hydroxyphenyl)-1,2-dimethyl-N-(1-methyl-1H-pyrazol-4-yl)-1H-pyrrole-3-carboxamide hydrochloride], the IC50 at Bcl-2 protein stood at 21.1 nM; in assay [1], 743 nM.

As to `Cc1c(C(=O)N(c2ccc(O)cc2)c2cnc3c(ccn3C)c2)cc(-c2cc(Cl)ccc2C(=O)N2Cc3ccccc3C[C@H]2CN2CCN(C)CC2)n1C` [Example 102, 5-(5-Chloro-2-{[(3S)-3-[(4-methylpiperazin-1-yl)methyl]-3,4-dihydroisoquinolin-2(1H)-yl]carbonyl}phenyl)-N-(4-hydroxyphenyl)-1,2-dimethyl-N-(1-methyl-1H-pyrrolo[2,3-b]pyridin-5-yl)-1H-pyrrole-3-carboxamide trihydrochloride], the IC50 was 2 nM on Bcl-2 protein and 6.51 nM in assay [1].

Consider `Cc1c(C(=O)N(c2ccc(O)cc2)c2cc(C#N)n(C)c2)cc(-c2cc(Cl)ccc2C(=O)N2Cc3ccccc3C[C@H]2CN2CCOCC2)n1C` [Example 108, 5-(5-Chloro-2-{[(3S)-3-(morpholin-4-ylmethyl)-3,4-dihydroisoquinolin-2(1H)-yl]carbonyl}phenyl)-N-(5-cyano-1-methyl-1H-pyrrol-3-yl)-N-(4-hydroxyphenyl)-1,2-dimethyl-1H-pyrrole-3-carboxamide hydrochloride], for which the IC50 on Bcl-2 protein was 3.9 nM; in assay [1] it was 15.4 nM.

With `Cc1c(C(=O)N(c2ccc(O)cc2)c2cccc(C#N)n2)cc(-c2cc(Cl)ccc2C(=O)N2Cc3ccccc3C[C@H]2CN2CCOCC2)n1C` [Example 109, 5-(5-Chloro-2-{[(3S)-3-(morpholin-4-ylmethyl)-3,4-dihydroisoquinolin-2(1H)-yl]carbonyl}phenyl)-N-(6-cyanopyridin-2-yl)-N-(4-hydroxyphenyl)-1,2-dimethyl-1H-pyrrole-3-carboxamide hydrochloride], the IC50 on Bcl-2 protein was found to be 91.5 nM; in assay [1], 930 nM.

On to `Cc1c(C(=O)N(c2ccc(O)cc2)c2cc(C#N)ccn2)cc(-c2cc(Cl)ccc2C(=O)N2Cc3ccccc3C[C@H]2CN2CCOCC2)n1C` [Example 110, 5-(5-Chloro-2-{[(3S)-3-(morpholin-4-ylmethyl)-3,4-dihydroisoquinolin-2(1H)-yl]carbonyl}phenyl)-N-(4-cyanopyridin-2-yl)-N-(4-hydroxyphenyl)-1,2-dimethyl-1H-pyrrole-3-carboxamide hydrochloride], for which the values for the IC50 (on Bcl-2 protein; in assay [1]) were 8.5 nM and 39.5 nM, respectively.

With `Cc1c(C(=O)N(c2ccc(O)cc2)c2cnn(C)c2)cc(-c2cc(Cl)ccc2C(=O)N2Cc3ccccc3C[C@H]2CN2CCN3CCOC[C@@H]3C2)n1C` [Example 115, 5-(5-Chloro-2-{[(3S)-3-[(9aS)-hexahydropyrazino[2,1-c][1,4]oxazin-8(1H)-ylmethyl]-3,4-dihydroisoquinolin-2(1H)-yl]carbonyl}phenyl)-N-(4-hydroxyphenyl)-1,2-dimethyl-N-(1-methyl-1H-pyrazol-4-yl)-1H-pyrrole-3-carboxamide dihydrochloride], the half-maximal inhibitory concentration (IC50) at Bcl-2 protein turned out to be 3.6 nM; in assay [1], 18.3 nM.

In the case of `Cc1c(C(=O)N(c2ccc(O)cc2)c2cnn(C)c2)cc(-c2cc(Cl)ccc2C(=O)N2Cc3ccccc3C[C@H]2CN2CCN3CCOC[C@H]3C2)n1C` [Example 116, 5-(5-Chloro-2-{[(3S)-3-[(9aR)-hexahydropyrazino[2,1-c][1,4]oxazin-8(1H)-ylmethyl]-3,4-dihydroisoquinolin-2(1H)-yl]carbonyl}phenyl)-N-(4-hydroxyphenyl)-1,2-dimethyl-N-(1-methyl-1H-pyrazol-4-yl)-1H-pyrrole-3-carboxamide dihydrochloride], the half-maximal inhibitory concentration (IC50) on Bcl-2 protein was 3.4 nM; in assay [1], 47.8 nM.

As to `Cc1c(C(=O)N(c2ccc(O)cc2)c2cnn(C3CC3)c2)cc(-c2cc(Cl)ccc2C(=O)N2Cc3ccccc3C[C@H]2CN2CCOCC2)n1C` [Example 122, 5-(5-Chloro-2-{[(3S)-3-(morpholin-4-ylmethyl)-3,4-dihydroisoquinolin-2(1H)-yl]carbonyl}phenyl)-N-(1-cyclopropyl-1H-pyrazol-4-yl)-N-(4-hydroxyphenyl)-1,2-dimethyl-1H-pyrrole-3-carboxamide], the IC50 was 3.4 nM at Bcl-2 protein and 82.4 nM in assay [1].

Consider `Cc1c(C(=O)N(c2ccc(O)cc2)c2cnn(C3COC3)c2)cc(-c2cc(Cl)ccc2C(=O)N2Cc3ccccc3C[C@H]2CN2CCOCC2)n1C` [Example 126, 5-(5-Chloro-2-{[(3S)-3-(morpholin-4-ylmethyl)-3,4-dihydroisoquinolin-2(1H)-yl]carbonyl}phenyl)-N-(4-hydroxyphenyl)-1,2-dimethyl-N-[1-(oxetan-3-yl) 1H-pyrazol-4-yl]-1H-pyrrole-3-carboxamide], for which the IC50 at Bcl-2 protein stood at 4.2 nM; in assay [1] it was 49.2 nM.

`Cc1c(C(=O)N(c2ccc(O)cc2)c2cnn(C3CCOC3)c2)cc(-c2cc(Cl)ccc2C(=O)N2Cc3ccccc3C[C@H]2CN2CCOCC2)n1C` (stereo partly drawn) [Example 127, 5-(5-Chloro-2-{[(3S)-3-(morpholin-4-ylmethyl)-3,4-dihydroisoquinolin-2(1H)-yl]carbonyl}phenyl)-N-(4-hydroxyphenyl)-1,2-dimethyl-N-[1-(tetrahydrofuran-3-yl)-1H-pyrazol-4-yl]-1H-pyrrole-3-carboxamide hydrochloride]: the IC50 is 5.3 nM on Bcl-2 protein and 111 nM in assay [1].

By IC50 is commonly meant the concentration that gives 50% inhibition.

(Values after patent US9108983B2, “Pyrrole compounds, a process for their preparation and pharmaceutical compositions containing them” (LES LABORATOIRES SERVIER, priority 2013, dated 2015).)
